Experimental data: publication PMC10396955, “2-Oxabicyclo[2.1.1]hexanes as saturated bioisosteres of the ortho-substituted phenyl ring” (Nature Chemistry, 2023)
≈ marks a conversion by molar mass, not a printed value. Where two headings read alike, the source gives them in different places.

Columns and labels:
[1] = Kinetic solubility in phosphate-buffered saline, pH 7.4; assay type: physicochemical; conditions: for solubility at 2 h: phosphate-buffered saline, 25 °C, pH 7.4, aqueous buffer, kinetic from dmso stock
Protocol: Analysis of Aqueous Solubility […]
compound (Ondansetron) were assessed for kinetic solubility in phosphate-buffered saline, pH […]
Phosphate buffered saline, pH 7.4 (Sigma-Aldrich, USA; Cat #P3813) […]
MultiScreen HTS 96 Well Filter Plates (Millipore, Ireland; Cat # MSGVS2210) […]
Matrix Multichannel Electronic Pipette 2-125 µL, 5-250 µL, 15-1250 µL (Thermo Scientific, […]
Vacuum pump (Millipore, USA; Model # XX5500000)
The measurements were performed using SpectraMax Plus reader in UV-Vis mode. Acquisition and analysis of the data were performed using SoftMax Pro v.5.4 (Molecular Devices) and Excel […]
Kinetic solubility assay was performed according to the Enamine’s aqueous solubility SOP.
Briefly, using a 20 mM stock solution of the compound in 100% DMSO dilutions were prepared to a theoretical concentration of 400 μM in duplicates in phosphate-buffered saline pH 7.4 […]
for two hours and then filtered through HTS filter plates using a vacuum manifold. The filtrates of test compounds were diluted 2-fold with acetonitrile with 2% DMSO before measuring.
In parallel, compound dilutions in acetonitrile/PBS (1:1) were prepared to theoretical […]
DMSO to generate calibration curves. Ondansetron was used as reference compound to control proper assay performance. 200 μl of each sample was transferred to 96-well plate and measured in 200-550 nm range with 5 nm step.
The concentrations of compounds in PBS filtrate are calculated using a dedicated Microsoft Excel calculation script. Proper absorbance wavelengths for calculations are selected for each compound manually based on absorbance maximums (absolute absorbance unit values for the minimum and maximum concentration points within 0 – 3 OD range). Each of the final datasets is additionally visually evaluated by the operator and goodness of fit (R2) is calculated for each calibration curve. The effective range of this assay is approximately 2-400 μM and the […]

physchem = assay type: physicochemical; conditions: for D (partition ratio), incubation 1 / D (partition ratio), incubation 2 / D (partition ratio), incubation 3: Table S2, n-octanol/PBS pH 7.4
Protocol: Determination of Distribution Coefficient (LogD, pH 7.4) […]
n-octanol – phosphate buffered saline (PBS), pH 7.4. Distribution coefficient (or LogD) is a […]
Phosphate buffered saline, tablet (Sigma-Aldrich, USA; Cat # P4417)
Acetic acid (Enamine, Ukraine.)
DMSO stock solutions of the test compounds 10mM
Gradient HPLC system (Shimadzu, Japan)
MTR22 Multi Mix Rotator (UNICO, USA)
Laboratory Centrifuge, Sigma 4-15C, Qiagen (SIGMA GmbH, Germany) […]
allowed to mix in a rotator for 1 h at 30 rpm. Phase separation was assured by centrifugation for […]
dilution. The samples (both phases) were analyzed using a HPLC system coupled with a tandem mass spectrometer. Mebendazole was used as a reference compound. […]
where: SO – peak area of the analyte in octanol phase
S P – peak area of the analyte in PBS buffer do – dilution coefficient for octanol phase dp – dilution coefficient for aqueous phase

[2] = Metabolic stability in human liver microsomes; assay type: in vitro ADME; conditions: both sexes; for half-life at 2 µM: read-out: t1/2; for k el at 2 µM: elimination constant, read-out: kel (converted)
Protocol: (§1) The data acquisition and system control was performed using Analyst 1.6.3 software from AB Sciex. Methods Microsomal incubations were carried out in 96-well plates in 5 aliquots of 30 μL each (one for each time point). […] In the control reactions the NADPH-cofactor system was substituted with phosphate buffer. […] Each reaction was performed in duplicates. Five time points over 40 minutes were analyzed. The reactions were stopped by adding 4 volumes of methanol containing internal standard to incubation aliquots, followed by protein sedimentation by centrifuging at 5500 rpm for 4 minutes. […]. Supernatants were analyzed using the HPLC system coupled with tandem mass spectrometer. […] In some cases, the last time point is excluded from the calculations to ensure acceptable logarithmic linearity of decay.

human liver microsomes = assay: Metabolic stability in human liver microsomes; assay type: in vitro ADME; conditions: human liver microsomes
Protocol: as §1

Fusarium oxysporum = assay: Antifungal susceptibility testing (MIC, CLSI M38-A2 microdilution); assay type: cell-based
Protocol: (§2) page 252: Antifungal susceptibility testing (determination of MIC values) The antifungal susceptibility tests were performed according to the Clinical and Laboratory Standards Institute (CLSI) […]-A2 protocol for mycelial fungi (1). Stock solutions were prepared by dissolving an appropriate amount of testing compounds in DMSO. Solutions of test compounds were added to the wells of a 96-well polystyrene microtiter plate (Colstar, USA) in the concentration range from 0.5 to 0.001 mg/mL. Mycelium growth was monitored photometrically at 490 nm by measuring the optical density of each well. Measurements were carried out two times: immediately after adding all components (RPMI 1640 broth, conidial suspension, test compound solutions) and after incubation plate at 26 °C for 48 h (2). MICs were the lowest testing compound concentrations that produced partial growth inhibition (50% of optical density relative to the control without testing compounds). The tests were performed in triplicate Results : Table S6. The MIC values of Fluxapyroxad , Boscalid , and their saturated analogues against Fusarium oxysporum , and Fusarium verticillioides Antifungal compaunds MIC, mg/mL Fusarium oxysporum Fusarium verticillioides Fluxapyroxad -* 0.250 Analogue (±)- 28 0.125 0.125 […] of 0.063 mg/mL. […]

Fusarium verticillioides = assay: as above; assay type: cell-based
Protocol: as §2

[3] = Table S1, incubation 1, read-out: PBS solubility, pH 7.4, Incubation 1
[4] = Table S1, incubation 2, read-out: PBS solubility, pH 7.4, Incubation 2
[5] = experimental kinetic solubility in phosphate-buffered saline at pH 7.4, Fig. 3, read-out: Solubility
[6] = pH 7.4, LogD, pH 7.4, incubation 1
[7] = pH 7.4, LogD, pH 7.4, incubation 3
[8] = human, liver microsomes, pH 7.4, human liver microsomes, 2 μM, 37 °C, with NADPH, 7 min
[9] = human, liver microsomes, pH 7.4, human liver microsomes, 2 μM, 37 °C, with NADPH, 15 min
[10] = human, liver microsomes, pH 7.4, human liver microsomes, 2 μM, 37 °C, with NADPH, read-out: % Remaining, Mean of 2
[11] = human, liver microsomes, pH 7.4, human liver microsomes, 0.42 mg protein per ml, Table S3, * approximate due to high stability, read-out: Clint
[12] = human, liver microsomes, pH 7.4, human liver microsomes, * approximate due to high stability
[13] = pH 7.4, human liver microsomes, no NADPH cofactor, ** instability partially or completely not determined by CYP450 activity, read-out: % Remaining without cofactor, Mean of 2
[14] = pH 7.4, human liver microsomes, * approximate due to high stability
[15] = Table S6, lowest concentration giving 50% of optical density relative to control, 26 °C, 48 h
[16] = Fusarium verticillioides, 48 h, Table S6, lowest concentration giving 50% of optical density relative to control, 26 °C, 48 h, read-out: MIC
[17] = Fusarium verticillioides, Fig. 4e, read-out: MIC
[18] = pH 7.4, LogD, pH 7.4, incubation 2

Row | solubility at 2 h [1, 3] | solubility at 2 h [1, 4] | solubility at 2 h [1, 5] | D (partition ratio), incubation 1 (physchem) | D (partition ratio), incubation 2 (physchem) | D (partition ratio), incubation 3 (physchem) | logD at 1 h (physchem; pH 7.4, LogD, pH 7.4 (mean)) | logD at 1 h (physchem; [6]) | logD at 1 h (physchem; [7]) | logD at 1 h (physchem; pH 7.4, logD (7.4)) | remaining at […], 2 µM [2, 8] | remaining at […], 2 µM [2, 9] | remaining at 25 min, 2 µM [2, 10] | remaining at 40 min, 2 µM [2, 10] | microsomal CLint at 2 µM [2, 11] | half-life at 2 µM [2, 12] | remaining at 40 min, 2 µM [2, 13] | k el at 2 µM [2, 14] | CIint, intrinsic clearance (human liver microsomes) | MIC (Fusarium oxysporum; Fig. 4e) | SMILES | also measured
1 | 35 µM (≈ 13.5 µg/mL) | 33 µM (≈ 12.7 µg/mL) | 34 µM (≈ 13.1 µg/mL) | 3.24E+04 | 2.00E+04 | 1.32E+04 | 4.32 | 4.51 | 4.12 | 4.3 | 78% | 72% | 57% | 55% | 35 µL/min/mg | 0.79 h | 99% | 0.00025 s⁻¹ | 35 µL/min/mg | 125 µg/mL (≈ 324 µM) | Cn1cc(C(=O)N[C@@H]2[C@@H]3CC[C@@]2(c2cc(F)c(F)c(F)c2)C3)c(C(F)F)n1 (relative stereo) [Compound 28] | MIC (Fusarium oxysporum; [15]): 125 µg/mL (≈ 324 µM); MIC (Fusarium verticillioides; [16]): 125 µg/mL (≈ 324 µM); MIC (Fusarium verticillioides; [17]): 125 µg/mL (≈ 324 µM)
2 | 151 µM (≈ 58.5 µg/mL) | 158 µM (≈ 61.2 µg/mL) | 155 µM (≈ 60 µg/mL) | 5.70E+02 | 6.13E+02 | 5.77E+02 | 2.77 | 2.76 | 2.76 | 2.8 | 106% | 93% | 83% | 72% | 23 µL/min/mg | 1.22 h | 89% | 0.00015 s⁻¹ | 23 µL/min/mg | – | Cn1cc(C(=O)N[C@@H]2[C@H]3C[C@]2(c2cc(F)c(F)c(F)c2)CO3)c(C(F)F)n1 (relative stereo) [Compound 29] | logD at 1 h (physchem; [18]): 2.79; inhibition at 125 µg/mL (Fusarium oxysporum; at a concentration of 0.125 mg/mL, MIC not reached, read-out: Maximal inhibition of growth): 35.7 ± 2.4%; MIC (Fusarium verticillioides; [16]): 250 µg/mL (≈ 645 µM); MIC (Fusarium verticillioides; [17]): 250 µg/mL (≈ 645 µM)
3 | 17 µM (≈ 5.9 µg/mL) | 18 µM (≈ 6.25 µg/mL) | 17 ± 0.3 µM (≈ 5.9 µg/mL) | 4.87E+02 | 3.16E+02 | 6.11E+02 | 2.66 | 2.69 | 2.79 | 3.5 ± 0.1 | 94% | 95% | 90% | 80% | 12 µL/min/mg | 2.31 h | 71% | 8.33e-05 s⁻¹ | 12 µL/min/mg | 31 µg/mL (≈ 89.3 µM) | O=C(N[C@@H]1[C@@H]2CC[C@@]1(c1ccc(Cl)cc1)C2)c1cccnc1Cl (relative stereo) [Compound 30] | increase of solubility relative to boscalid ([1]; kinetic solubility, PBS pH 7.4): ~ 50%; solubility at 2 h ([1]; Table S1, mean of 2 incubations, 2 h, 2% DMSO, effective range approx. 2-400 μM, read-out: PBS solubility, pH 7.4, Mean): 17 µM (≈ 5.9 µg/mL); logD at 1 h (physchem; [18]): 2.5; MIC (Fusarium oxysporum; [15]): 31 µg/mL (≈ 89.3 µM); MIC (Fusarium verticillioides; Fig. 4e): 0.031 mg ml^–1; MIC (Fusarium verticillioides; [16]): 31 µg/mL (≈ 89.3 µM)
4 | 148 µM (≈ 51.7 µg/mL) | 157 µM (≈ 54.8 µg/mL) | 152 µM (≈ 53.1 µg/mL) | 3.05E+03 | 3.16E+03 | 3.13E+03 | 3.5 | 3.48 | 3.5 | 2.7 ± 0.2 | 107% | 110% | 107% | 108% | ~3 µL/min/mg | ~8.09 h | 85% | – | 3 µL/min/mg | 250 µg/mL (≈ 716 µM) | O=C(N[C@@H]1[C@H]2C[C@]1(c1ccc(Cl)cc1)CO2)c1cccnc1Cl (relative stereo) [Compound 31] | logD at 1 h (physchem; [18]): 3.5; microsomal CLint at 2 µM ([2]; human, liver microsomes, pH 7.4, human liver microsomes, Fig. 3, read-out: CIint, intrinsic clearance): 3 µL/min/mg; MIC (Fusarium oxysporum; [15]): 250 µg/mL (≈ 716 µM); inhibition at 250 µg/mL (Fusarium verticillioides; Fusarium verticillioides, read-out: Maximal inhibition of growth): 36.3 ± 1.9%
